The record followed here is patent US7786174B2, “Methods and compounds for inhibiting amyloid deposits” (Bellus Health (International) Limited, priority 1999, dated 2010).

In one experiment the target is T1, IAPP (Homo sapiens, UniProt P10997).
T1 construct: add 10 μL of 10 mg/mL IAPP stock solution (final 100 μg peptide)
T1 sequence (P10997 34-70 limits assumed): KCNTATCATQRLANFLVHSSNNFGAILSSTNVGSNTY
Nature of the experiment: Circular dichroism analysis of IAPP-associated fibril formation (β-sheet conformation), co-incubation procedure. The conditions noted are these: change in ellipticity at 218 nm vs peptide-only control; molar ratio 1:10 peptide:compound; water or 10 mM phosphate buffer pH 7; relative value active / not active. Type of experiment: biochemical. The method, then:
Cell/cuvette: Hellma quartz (QS) with 1.0 mm pathlength
Wavelength interval: 250 nm-190 nm
Scanning speed: 20 nm/min
The assay, a co-incubation procedure, examines the ability of a compound or substance to inhibit the assembly of amyloid fibrils, e.g., to test for the presence of the amyloidotic β-sheet conformation in the presence of soluble IAPP. Samples are run in the presence and absence (i.e., water alone) of buffering agent, which is done to determine if competitive effects are seen with the ionic buffer (usually phosphate).
Add components used at a molar ratio of 1:10 [peptide:compound]; add 10 μL of 10 mg/mL IAPP stock solution (final 100 μg peptide) to the aqueous solution containing compound to a final volume of 400 μl. The pH of the final assay solution is measured to ensure there is no fluctuation and the spectrum is accumulated using the parameters as shown above.
Add desired amount of compound to achieve a 1:10 molar ratio in 10 mM phosphate buffer, pH 7. Add 10 μL of 10 mg/mL IAPP stock solution (final peptide 100 μg) to the phosphate buffered solution containing the compound and bring to a final volume of 400 μL. The pH of the final assay solution is measured to ensure there is no fluctuation and the spectrum is accumulated using the parameters as shown above.
In both assays, a control sample is run with each test group.
Make fresh 1 mg/mL stock solution of IAPP in 10 mM phosphate buffer, pH 7. Add desired amount of compound to achieve a 1:10 molar ratio in 10 mM phosphate buffer, pH 7. Incubate for 3 days at room temperature. Make up to final volume of 400 μL with 10 mM phosphate buffer, pH 7. The pH of the final assay solution is measured to ensure there is no fluctuation and the spectrum is accumulated using the parameters as shown above.
Plots of the spectra (control and treated) are individually assembled and the changes in ellipticity at 218 nm are examined. This minimum is directly correlated with the amount of β-sheet present in the sample.
(Circular dichroism is widely used to follow secondary structure.)

A further experiment has as its target T2, Synthetic human IAPP (Homo sapiens, UniProt P10997).
T2 construct: Synthetic human IAPP (Bachem) was dissolved in 40% trifluoroethanol and freeze-dried; purchased Bachem; host or cells: chemical synthesis
T2 sequence (P10997 34-70 limits assumed): T1 sequence (P10997 34-70 limits assumed)
Nature of the experiment: Rate of amyloid fibril formation by Thioflavine T (ThT) spectroscopy. The conditions noted are these: ThT 62.5 μM; excitation 440 nm, emission 482 nm; readings from 5 min, over 4-6 h and after overnight at room temperature. Type of experiment: biochemical. The method, then: Determination of the Rate of Amyloid Fibril Formation by Thioflavine T Spectroscopy
Detection of ThT fluorescence can be used as a sensitive assay for amyloid fibril formation under different conditions.
Synthetic human IAPP (Bachem) was dissolved in 40% trifluoroethanol and freeze-dried into conveniently-sized aliquots. IAPP was prepared immediately before the measurements by dissolving in 40% 1,1,1,3,3,3-hexafluoro-2-propanol (HFIP) in water to maintain the peptide in alpha helical conformation and soluble. A stock solution of ThT (2.5 mM) was prepared, 7.9 mg in 10 mL Tris-HCl pH 7.0 and filtered (0.22 μm). Solutions were kept in the dark until use. Fluorescence was examined at 440 nm excitation (slit 5 nm), and emission at 482 nm (slit 10 nm) with stirring. […] The sample was stirred for 5 min. before taking a reading. Measurements were made at an initial time point (5 min. from sample preparation), at intervals over the next 4-6 h and after overnight incubation at room temperature.

For `NCC(O)CS(=O)(=O)O` (stereo not drawn) [3-amino-2-hydroxy-1-propanesulfonic acid], at IAPP, the result was Active. Also, the “effect on IAPP-associated fibril assembly (ThT fluorescence)” value (shortened to “effect”) at Synthetic human IAPP is given as “inhibit or prevent IAPP-associated fibril assembly”.
The matching figures for `O=S(=O)(O)CCCNCCCO` [3-(3-hydroxy-1-propyl)amino-1-propanesulfonic acid]: “Active” and “inhibit or prevent IAPP-associated fibril assembly”.
For `CN(C)CCCS(=O)(=O)O` [3-dimethylamino-1-propanesulfonic acid], the result on IAPP was Active. Moreover, on Synthetic human IAPP, the “effect” value is on record as “inhibit or prevent IAPP-associated fibril assembly”.
The corresponding values for `O=S(=O)([O-])NC1CCCCC1.[Na+]` [cyclohexylsulfamic acid, sodium salt] are “Active” and “inhibit or prevent IAPP-associated fibril assembly”.
The corresponding values for `COc1ccc(S(=O)(=O)[O-])c2cccnc12.[Na+]` [8-methoxyquinoline-5-sulfonic acid, sodium salt] are “Active” and “inhibit or prevent IAPP-associated fibril assembly”.
For `O=S(=O)([O-])CCCN1CC=C(c2ccccc2)CC1.[Na+]` [4-phenyl-1-(3′-sulfopropyl)-1,2,3,6-tetrahydropyridine, sodium salt], at IAPP, the outcome was Active. Also, on Synthetic human IAPP, the “effect” value is listed as “inhibit or prevent IAPP-associated fibril assembly”.
The corresponding values for `N[C@@H](COP(=O)(O)O)C(=O)O` [O-phospho-L-serine] are “Active” and “inhibit or prevent IAPP-associated fibril assembly”.
The corresponding values for `Cl.c1ccc2c(c1)CCNC2` [1,2,3,4-tetrahydroisoquinoline, HCl] are “Active” and “inhibit or prevent IAPP-associated fibril assembly”.
Consider `O=C(O)C(F)(F)C(F)(F)C(F)(F)C(=O)O` [hexafluoroglutaric acid], for which, at IAPP, the outcome was Active. Also, the “effect” value on Synthetic human IAPP is given as “inhibit or prevent IAPP-associated fibril assembly”.
